Experimental data from publication PMC6748449, “HupA, the main undecaprenyl pyrophosphate and phosphatidylglycerol phosphate phosphatase in Helicobacter pylori is essential for colonization of the stomach” (PLoS Pathogens, 2019).

What was measured:
LpxF (HP1580) = biological target: T1, LpxF (HP1580) (Helicobacter pylori, UniProt O26100); test: phosphate release, malachite green; format: biochemical; settings: 50 uM substrate, 0.2% DDM, pH 7.4, 37 °C; very low activity
T1 construct: gene HP_1580

LpxE (HP0021) = LpxE (HP0021) (Helicobacter pylori, UniProt O24866); test: phosphate release, malachite green; format: biochemical; settings: 50 uM substrate, 0.2% DDM, pH 7.4, 37 °C
Chain of LpxE (HP0021) (O24866 whole entry): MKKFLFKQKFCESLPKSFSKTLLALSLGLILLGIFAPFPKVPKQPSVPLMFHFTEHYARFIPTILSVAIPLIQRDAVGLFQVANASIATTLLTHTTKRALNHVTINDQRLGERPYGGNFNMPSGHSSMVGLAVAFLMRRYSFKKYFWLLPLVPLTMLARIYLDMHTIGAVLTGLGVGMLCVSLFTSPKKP

T1 sequence (O26100 entry or part of it): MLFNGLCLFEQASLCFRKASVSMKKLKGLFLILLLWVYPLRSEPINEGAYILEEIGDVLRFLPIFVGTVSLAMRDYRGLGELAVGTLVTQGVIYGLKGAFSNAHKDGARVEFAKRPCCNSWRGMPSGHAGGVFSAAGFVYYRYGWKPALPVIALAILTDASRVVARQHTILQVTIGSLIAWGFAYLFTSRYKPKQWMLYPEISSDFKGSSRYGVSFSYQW

CC(C)=CCC/C(C)=C/CC/C(C)=C/COP(=O)(O)OP(=O)(O)O [C15-PP]
phosphate release, malachite green (LpxF (HP1580)): LpxF only showed very low activity towards C15-PP and PGP | phosphate release, malachite green (LpxE (HP0021)): LpxE had similar substrate specificity as HupA, except for C5-PP
